Data taken from the supplement of paper PMC10307832.

What was measured:
Assay in all cases: relative viability (nuclei count vs DMSO), 5 days (fraction); higher = more cells survive
[1] = compound: CCOC(=O)CCNc1cc(N2CCc3ccccc3CC2)nc(-c2ccccn2)n1 [GSK-J4] + N=C(N)NC(=N)NCCc1ccccc1 [Phenformin] (partner 250 µM)
Method in brief: (§1)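 Lung cancer cell lines were pin-tool dosed in 1536-well plates on the day after seeding, with either a lone drug or a fixed anchor-drug dose plus five library-drug doses (not always all listed) in √10 steps. Nuclei were counted on 4× images after 5 days. Relative viability is the ratio of treated-well to vehicle-well nuclei counts, with each value a median of duplicate plates.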

[2] = compound: CN1CCC(CC1)OC2=CC(=C(C=C2)NC3=NC=C4C(=N3)N(C(=O)N4C)C5CCCC5)OC [AZ3146] + CC(=O)Nc1cccc(-n2c(=O)n(C3CC3)c(=O)c3c(Nc4ccc(I)cc4F)n(C)c(=O)c(C)c32)c1 [Trametinib] (partner 0.02 µM)
Method in brief: as §1

[3] = compound: CN1CCC(CC1)OC2=CC(=C(C=C2)NC3=NC=C4C(=N3)N(C(=O)N4C)C5CCCC5)OC [AZ3146] + CS(=O)(=O)N1CCN(Cc2cc3nc(-c4cccc5[nH]ncc45)nc(N4CCOCC4)c3s2)CC1 [Pictilisib] (partner 1 µM)
Method in brief: as §1

[4] = compound: CN1CCC(CC1)OC2=CC(=C(C=C2)NC3=NC=C4C(=N3)N(C(=O)N4C)C5CCCC5)OC [AZ3146] + O=C(CCCCCCC(=O)Nc1ccccc1)NO [Vorinostat] (partner 1 µM)
Method in brief: as §1

Row | Cell Line | relative viability ([1]; first compound 0.5 µM) | relative viability ([1]; first compound 5 µM) | relative viability ([1]; first compound 15.81 µM) | relative viability ([1]; first compound 50 µM) | relative viability ([2]; first compound 0.08 µM) | relative viability ([2]; first compound 0.253 µM) | relative viability ([2]; first compound 0.8 µM) | relative viability ([2]; first compound 2.53 µM) | relative viability ([2]; first compound 8 µM) | relative viability ([3]; first compound 0.08 µM) | relative viability ([3]; first compound 0.253 µM) | relative viability ([3]; first compound 0.8 µM) | relative viability ([3]; first compound 2.53 µM) | relative viability ([3]; first compound 8 µM) | relative viability ([4]; first compound 0.08 µM) | relative viability ([4]; first compound 0.253 µM) | relative viability ([4]; first compound 0.8 µM) | relative viability ([4]; first compound 2.53 µM) | relative viability ([4]; first compound 8 µM) | relative viability ([1]; first compound 1.581 µM)
1 | NCI-H3122 | 0.37 | 0.305 | 0.289 | 0.264 | 0.245 | 0.228 | 0.224 | 0.204 | 0.251 | 0.613 | 0.614 | 0.555 | 0.639 | 0.684 | 0.92 | 0.969 | 1.08 | 1.07 | 0.932 | 
2 | PC-3 [JPC-3] | 0.481 | 0.521 | 0.5 | 0.488 | 0.709 |  | 0.596 | 0.728 | 0.626 | 0.669 | 0.651 | 0.766 | 0.8 | 0.681 | 0.554 |  | 0.803 | 0.66 | 0.713 | 0.48
3 | PC-14 | 0.624 | 0.432 | 0.537 | 0.53 | 0.728 | 0.821 | 0.818 | 0.796 | 0.694 | 0.68 | 0.763 | 0.725 | 0.71 | 0.518 | 0.538 | 0.745 | 0.546 | 0.359 | 0.0815 | 0.555
4 | RERF-LC-KJ | 0.424 | 0.401 | 0.417 | 0.341 | 0.848 | 0.982 | 0.796 | 0.911 | 0.769 | 0.513 | 0.53 | 0.549 | 0.696 | 0.516 | 0.534 | 0.657 | 0.774 | 0.756 | 0.576 | 0.441
5 | SK-LU-1 | 0.48 | 0.323 | 0.365 | 0.245 | 0.475 | 0.409 | 0.436 | 0.549 | 0.432 | 0.571 | 0.507 | 0.693 | 0.651 | 0.535 | 0.746 | 0.854 | 0.752 | 0.792 | 0.504 | 0.495
6 | SK-MES-1 | 0.582 | 0.594 | 0.565 | 0.371 | 0.549 | 0.579 | 0.585 | 0.555 | 0.544 | 0.349 | 0.376 | 0.388 | 0.371 | 0.373 | 1.04 | 1.17 | 1.14 | 1.19 | 0.701 | 0.585
7 | SW 1573 | 0.315 | 0.336 | 0.262 | 0.247 | 0.541 | 0.63 | 0.663 | 0.591 | 0.45 | 0.457 | 0.539 | 0.507 | 0.633 | 0.443 | 0.636 | 0.767 | 0.643 | 0.723 | 0.307 | 0.326
8 | UMC-11 | 0.276 | 0.241 | 0.306 | 0.294 | 0.575 | 0.725 | 0.629 | 0.626 | 0.313 | 0.698 | 0.99 | 0.706 | 0.802 | 0.513 | 0.299 | 0.389 | 0.406 | 0.267 | 0.175 | 
